According to US20230027620A1, “PENTAPEPTIDE AND METHODS OF USE THEREOF” (THE BOARD OF TRUSTEES OF THE UNIVERSITY OF ILLINOIS, priority 2019, published 2023):

Tests used:
[1] = system: corneal epithelial wound in C57BLl6J mice; assay: Murine corneal epithelial injury (wound healing) model; assay type: in vivo
Description: Wounded areas were treated with Hst5, SHRGY (SEQ ID NO:2) or SP1 peptides (n=7 for each group), each tested at 80 μM concentration. Wound areas at multiple time points were measured using Image J software. […] Statistical significance was determined by a two-way ANOVA with Bonferroni post-hoc test. **P<0.01, ***P<0.001. % Wound area=(Wound area at time X/Wound area at time 0)×100.
Wound Healing Assay. Corneal wounding experiments in mice were conducted in compliance with the Association for Research in Vision and Ophthalmology (ARVO) Statement for the Use of Animals in Ophthalmic and Vision Research. The protocol was approved by the Animal Care & Use Committee of the University of Illinois at Chicago. Twelve-to-nineteen week old C57BLl6J (Jackson Laboratory, Bar Harbor, Me.) mice were anesthetized with intraperitoneal injection of ketamine (100 mg/kg) and xylazine (5 mg/kg). After applying two drops of topical 0.5% proparacaine, a 2.0-mm area of the central epithelium was demarcated using 2-mm disposable biopsy punch and removed by an AlgerBrush II (The Alger Company, Lago Vista, Tex.). In the treatment (n=7) or the control (n=7) group, Histatin=5 (80 μM), SHRGY peptide (SEQ ID NO:2; 80 μM), or SP1 (80 μM) was applied to the cornea three times a day. At 0, 18 and 24 hours, the corneas were stained with fluorescein (FUL-GLO® Fluorescein Sodium ophthalmic strips, Akorn, Lake forest, Ill.) and photographed using a NIKON FS-2 photo-slit lamp with a NIKON D200 camera (Melville, N.Y.). Wound sizes were compared with the baseline for each mouse and the percentages of wound closure was measured using Image J software.
For immunofluorescence, excised whole mouse eye was snap frozen in optimal cutting temperature compound (OCT; (Fisher Healthcare, Galderma, Calif.). The frozen tissues were cut into 10 μm cryosections (ThermoScientific NX50 Cryomicrotome, Waltham, Mass.) and subsequently were mounted on Superfrost plus slides (Thermofisher, Waltham, Mass.). Slides were fixed for 20 minutes in methanol, washed several times with PBS, stained with DAPI for 2 minutes, and further washed with PBS and deionized water. The slides were then mounted in Fluoro gel with Tris buffer (Electron Microscopy Sciences, Hattfield, Pa.) and observed under a confocal microscope (Zeiss LSM 710 Confocal Microscope, Oberkochen, Germany) using a 10× objective.
Thus, Hst5 and SHRGY (SEQ ID NO:2)-containing peptides can enhance wound healing in a well-vetted model of murine corneal epithelial injury.

HCE cells = assay: Cell sprouting assay, HCE cells embedded in MATRIGEL; assay type: cell-based, Human; details: 50 μM, 72 hours, compared to vehicle only control
Description: Cell Sprouting Assay. A cell sprouting assay was performed using HCE cells in a solubilized basement membrane sold under the tradename MATRIGEL® (reduced and diluted in MEM 1:1; Corning Life Sciences, Tewksbury, Mass.). HCE cells were embedded in the solubilized basement membrane at 5×10^5 cells/10 μL spot. The cell spotted plates were then exposed to reduced serum media (0.5% FBS) (untreated negative control), Hst5 (50 μM), or 10% FBS (positive control). HCE cell migration was then followed with time lapse microscopy and imaged at 4× (Image Express Micro; Molecular Devices, CA). Cell covered area at a given time point was measured using Image J.
A cell sprouting assay using HCE cells embedded as a spot in growth factor reduced solubilized basement membrane sold under the tradename MATRIGEL® (Corning Life Sciences, Tewksbury, Mass.) was used to determine if HST5 could promote epithelial cell migration. […] A standardized scratch assay using the HCLE cell line tested the effects of Hst5 on cell migration. HCLE cells were grown to confluence and mechanically scratched using a pipette tip. Cells were treated with different concentrations (20, 50, 80 and 100 μM) of Hst5 or left untreated as a control. Time-lapse microscopy was performed and wound areas were analyzed at different time points. […] The most significant increase in scratch closure rates was noticed at 50 μM. […]

pERK1/2 = assay: Western blot for pERK1/2 after wounding; assay type: cell-based; details: wounded cells, compared with wounding alone
Description: Western Blot. Western blot was performed following standard methods. Protein lysate (20 μg) was boiled in NuPAGE™ LDS sample buffer (Invitrogen, Carlsbad, Calif.) for 10 minutes and then subjected to electrophoresis on 12% NuPAGE™ Bis-Tris gels (Invitrogen, Carlsbad, Calif.), followed by transfer to nitrocellulose membranes (Amersham Protran, GE Healthcare, Pittsburgh, Pa.). Membranes were then blocked with Tris-buffered saline containing 3% nonfat dry milk for 1 hour and incubated with primary antibody against pERK1/2 (Cell Signaling, Danver, Mass.) (1:1000) overnight at 4° C. After washing in 0.05% Tris-buffered saline containing 0.05% polysorbate 20, membranes were then incubated for 1 hour with goat anti-rabbit-HRP (BD Biosciences, San Jose, Calif.) (1:2000) as the secondary antibody. The membranes were developed using X-ray film and ECL Pro solution (PerkinElmer, Waltham, Mass.). Beta-actin was used as an internal control.
The level of activation/phosphorylation of ERK with and without wounding and with and without Hst5 application were investigated to determine whether the cellular signaling pathways underpinning the pro-migratory effects of Hst5 were similar to those of Hst1 in other epithelial cell types. Wounding causes an increased in phosphorylated form of ERK1/2 (p-ERK1/2). […]

Sequence: DSHAKRHHGYKRKFHEKHHSHRGY [Hst5]
- % remaining corneal wound area compared to baseline ([1]; 80 μM, 18 hours and 24 hours, compared to SP1, n=7): statistically significant improvement
- corneal wound size, histologic analysis (DAPI cross sections) ([1]; compared to SP1-treated controls): reductions in corneal wound size
- corneal wound closure rates ([1]; topical, 80 μM, three times a day, vs scrambled peptide control SP1): significant improvement in corneal wound closure rates
- cell migration (cell sprouting) (HCE cells): statistically significant increase in cell migration
- pERK1/2 levels (Western blot) (pERK1/2): further increased
